Data published in ChEMBL document CHEMBL1201862, “PubChem BioAssay data set” (2004).
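Values below derive from 48-hour exposures of cells grown in 96-well plates, with endpoints linearly interpolated between the two concentrations bracketing the appropriate inhibition level. Here, GI50 denotes the concentration required for 50% inhibition of growth.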 The source made the active and inactive calls. No stated cut-off is given here; in the data, active = GI50 up to about 1.1 µM and inactive = higher.

How the values were obtained:
Assay in all cases: DTP human tumour cell line panel, 48 h
HOP-92 = test system: HOP-92
A549 = test system: A549
SF-268 = test system: SF-268
SK-MEL-5 = test system: SK-MEL-5
RXF 393 = test system: RXF 393
UO-31 = test system: UO-31
NCI-H522 = test system: NCI-H522
786-0 = test system: 786-0
SF-539 = test system: SF-539
SR = test system: SR
MDA-MB-231 = test system: MDA-MB-231
IGROV-1 = test system: IGROV-1
SNB-75 = test system: SNB-75
Hs-578T = test system: Hs-578T
UACC-62 = test system: UACC-62
RPMI-8226 = test system: RPMI-8226
NCI-H226 = test system: NCI-H226
MOLT-4 = test system: MOLT-4
CCRF-CEM = test system: CCRF-CEM
OVCAR-4 = test system: OVCAR-4
KM12 = test system: KM12
U-251 = test system: U-251
UACC-257 = test system: UACC-257
T47D = test system: T47D
OVCAR-3 = test system: OVCAR-3
MDA-MB-435 = test system: MDA-MB-435
MDA-N = test system: MDA-N
EKVX = test system: EKVX
NCI-H23 = test system: NCI-H23
HCT-15 = test system: HCT-15
HOP-62 = test system: HOP-62
HT-29 = test system: HT-29
SK-MEL-28 = test system: SK-MEL-28
SK-OV-3 = test system: SK-OV-3
HCT-116 = test system: HCT-116
DU-145 = test system: DU-145
OVCAR-8 = test system: OVCAR-8
ACHN = test system: ACHN
OVCAR-5 = test system: OVCAR-5
COLO 205 = test system: COLO 205
LOX IMVI = test system: LOX IMVI
SN12C = test system: SN12C
HL-60 = test system: HL-60
K562 = test system: K562
CAKI-1 = test system: CAKI-1
SF-295 = test system: SF-295
SW-620 = test system: SW-620
NCI/ADR-RES = test system: NCI/ADR-RES
PC-3 = test system: PC-3
BT-549 = test system: BT-549
Malme-3M = test system: Malme-3M
M14 = test system: M14
NCI-H460 = test system: NCI-H460
MCF7 = test system: MCF7
SNB-19 = test system: SNB-19
A498 = test system: A498
SK-MEL-2 = test system: SK-MEL-2
TK-10 = test system: TK-10

Measured: GI50

Sc1nnc(SCc2ccccc2Cl)c2nc[nH]c12
> 100 µM: HCT-15
inactive: HOP-92 > 100 µM | A549 > 100 µM | SF-268 > 100 µM | SK-MEL-5 > 100 µM | RXF 393 > 100 µM | UO-31 > 100 µM | NCI-H522 > 100 µM | 786-0 > 100 µM | SF-539 > 100 µM | SR > 100 µM | MDA-MB-231 > 100 µM | IGROV-1 > 100 µM | SNB-75 > 100 µM | Hs-578T > 100 µM | UACC-62 > 100 µM | RPMI-8226 > 100 µM | NCI-H226 > 100 µM | MOLT-4 > 100 µM | CCRF-CEM > 100 µM | OVCAR-4 > 100 µM | KM12 > 100 µM | U-251 > 100 µM | UACC-257 > 100 µM | T47D > 100 µM | OVCAR-3 > 100 µM | MDA-MB-435 > 100 µM | MDA-N > 100 µM | EKVX 74.8 µM | NCI-H23 > 100 µM | HOP-62 > 100 µM | HT-29 > 100 µM | SK-MEL-28 > 100 µM | SK-OV-3 > 100 µM | HCT-116 > 100 µM | DU-145 > 100 µM | OVCAR-8 > 100 µM | ACHN > 100 µM | OVCAR-5 > 100 µM | COLO 205 > 100 µM | LOX IMVI > 100 µM | SN12C > 100 µM | HL-60 > 100 µM | K562 > 100 µM | CAKI-1 > 100 µM | SF-295 > 100 µM | SW-620 > 100 µM | NCI/ADR-RES > 100 µM | PC-3 > 100 µM | BT-549 > 100 µM | Malme-3M > 100 µM | M14 > 100 µM | NCI-H460 > 100 µM | MCF7 > 100 µM | SNB-19 > 100 µM | A498 > 100 µM | SK-MEL-2 > 100 µM | TK-10 > 100 µM
